The values that follow come from US20090317376A1, “Compositions And Methods For Lipo Modeling” (Georgetown University MEDICAL SCHOOL, priority 2005, published 2009).

The experiment has as its system endothelial cells. Nature of the experiment: Endothelial cell proliferation (mitogenic assay). The experiment is classed as cell-based, human. The text has this: To mimic stress-released NPY in vitro, conditioned media from, or coculture with, neuroblastoma SKNBE cells (a model of sympathetic neurons which release 0.1 pM NPY) is used to treat endothelial cells and 3T3-L1 preadipocytes. Both cell lines express all NPYRs but lack NPY (confirmed by RT-PCR and IHC, FIG. […] 6). […] When 3T3-L1 preadipocytes are cocultured with HMVEC, there is no significant mitogenic response between treated and untreated cells.
Co-culture: For mitogenic assay and expression studies, co-culture is performed in a Costar Transwell system. Cells are plated on the 6-well plates and the inserts with 0.4 μm Polyester membranes. After they reach 30% confluence, the inserts are placed into plates with other cells. Co-culture of neuroblastomas/SCG neurons with aECs are carried out in EC media and with preadipocytes—in preadipocyte growth media. […] After 48 h, the cells are counted with a coulter counter. […]
Mitogenic assays: 3T3-L1 pre-adipocytes are allowed to grow to 30% confluency before serum-starving the cells. […] Proliferation is determined by cell counting using a coulter counter (Beckman Coulter, Miami, Fla.). […] After 24 h, cells are harvested in a 96-well harvester (Tomtec) and counted in a Betaplate Liquid Scintillation Counter (Wallac).
1. […] After 24 h, cells were harvested in a 96-well harvester (Tomtec) and counted in a Betaplate Liquid Scintillation Counter (Wallac). […]

Regarding `N=C(N)NCCC[C@H](NC(=O)CC1(CC(=O)N2CCN(C3c4ccccc4NC(=O)c4ccccc43)CC2)CCCC1)C(=O)NCCn1c(=O)n(-c2ccccc2)n(-c2ccccc2)c1=O` (some centres unmarked) [BIIE0246], where the note is “BIIE0246 1 μM”, the “block of NPY- and neuroblastoma-conditioned media-stimulated endothelial cell proliferation” value was “blocked”. In the case of neuropeptide Y [NPY], the endothelial cell proliferation entry (NPY treatment of endothelial cells) was “stimulated”.
